# pIC50: −log10 of the molar value. Like-named read-outs stand apart in the source and are kept apart here.
# Legend:
# [1] = ref Gintant (2011), cited from earlier work
# Kv4.3/KChIP2.2 = target: T1, Kv4.3/KChIP2.2 (Homo sapiens, UniProt Q9UK17); test: IonWorks Quattro Kv4.3/KChIP2.2 screen (AstraZeneca, Q); format: cell-based; details: IonWorks Quattro, −log10 of IC50 in Molar, Hill n = 1
# T1 sequence (Q9UK17 1-655): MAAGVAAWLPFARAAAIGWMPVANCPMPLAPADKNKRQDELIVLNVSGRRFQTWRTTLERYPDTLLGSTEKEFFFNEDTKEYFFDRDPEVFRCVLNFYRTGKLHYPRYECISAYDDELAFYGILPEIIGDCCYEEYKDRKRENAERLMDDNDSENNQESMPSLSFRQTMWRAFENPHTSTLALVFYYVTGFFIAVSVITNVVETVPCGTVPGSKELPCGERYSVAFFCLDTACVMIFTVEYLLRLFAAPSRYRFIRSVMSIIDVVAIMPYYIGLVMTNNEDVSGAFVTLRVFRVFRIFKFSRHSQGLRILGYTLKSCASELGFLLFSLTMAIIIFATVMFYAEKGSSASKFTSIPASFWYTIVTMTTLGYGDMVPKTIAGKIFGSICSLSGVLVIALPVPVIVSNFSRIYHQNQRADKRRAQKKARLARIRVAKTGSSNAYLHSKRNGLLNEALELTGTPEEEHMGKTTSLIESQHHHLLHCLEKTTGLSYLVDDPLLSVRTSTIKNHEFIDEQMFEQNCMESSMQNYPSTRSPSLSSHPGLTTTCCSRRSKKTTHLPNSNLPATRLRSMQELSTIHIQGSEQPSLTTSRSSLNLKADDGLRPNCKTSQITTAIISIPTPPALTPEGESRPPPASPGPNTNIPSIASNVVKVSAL
# T1 sequence (Q9NS61 1-270 partner): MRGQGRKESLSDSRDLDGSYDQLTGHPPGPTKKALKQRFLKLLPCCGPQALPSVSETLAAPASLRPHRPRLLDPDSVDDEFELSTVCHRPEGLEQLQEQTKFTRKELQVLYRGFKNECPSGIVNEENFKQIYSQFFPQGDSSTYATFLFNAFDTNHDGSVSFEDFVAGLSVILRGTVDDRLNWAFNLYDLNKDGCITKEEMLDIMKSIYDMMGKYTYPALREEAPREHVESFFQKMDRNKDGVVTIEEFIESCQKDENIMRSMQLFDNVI
# hERG [2] = target: T2, hERG (Homo sapiens, UniProt Q12809); details: cited from earlier work
# [3] = tested on: QT interval on the body surface ECG; details: cited from earlier work
# [4] = Plasma concentration (Cmax) during the TQT study, total and calculated free; format: in vivo, human; details: for Cmax TOTAL: calculated from ng/mL and molecular weight
# hERG [5] = target: T2, hERG; test: IonWorks Quattro hERG screen (AstraZeneca, Q)
# NaV1.5 [6] = target: T3, NaV1.5 (Homo sapiens, UniProt Q14524); test: Second IonWorks Quattro NaV1.5 screen (GSK, Q2); details: second independent Quattro screening; −log10 of IC50 in Molar; 0.0 = pIC50 ≤ 0 fitted
# CaV1.2 [7] = target: T4, CaV1.2 (Homo sapiens, UniProt Q13936); test: IonWorks Quattro CaV1.2 screen (AstraZeneca, Q)
# CaV1.2 [8] = target: T4, CaV1.2; test: IonWorks Barracuda CaV1.2 screen (GSK, B)
# NaV1.5 [9] = target: T3, NaV1.5; test: IonWorks Quattro NaV1.5 screen (AstraZeneca, Q)
# [10] = ref Gintant (2011); cited from earlier work
# KCNQ1/MinK = KCNQ1/MinK (Homo sapiens, UniProt P51787); test: IonWorks Quattro KCNQ1/MinK screen (AstraZeneca, Q); details: −log10 of IC50 in Molar
# [11] = Cmax high, calculated with PPB and molecular weight
# [12] = Cmax low, calculated with PPB and molecular weight
# [13] = IonWorks Quattro, −log10 of IC50 in Molar, Hill n = 1, 0.0 = pIC50 ≤ 0 fitted
# [14] = Hill n = 1, 0.0 = pIC50 ≤ 0 fitted
Compound,Cmax TOTAL ([1]; Cmax high),Cmax TOTAL ([1]; Cmax low),Kv4.3 pIC50 (Q) (Kv4.3/KChIP2.2; 0.0 = pIC50 ≤ 0 fitted),Free plasma concentration ([4]; Cmax high),Cmax TOTAL ([4]; Cmax high),"Cmax FREE ([4]; Cmax high, calculated with PPB)","Cmax FREE [4, 11]",Free plasma concentration ([4]; Cmax low),Cmax TOTAL ([4]; Cmax low),"Cmax FREE ([4]; Cmax low, calculated with PPB)","Cmax FREE [4, 12]",pIC50 (hERG [5]),CaV1.2 pIC50 (B) (CaV1.2 [8]),NaV1.5 pIC50 (Q) (NaV1.5 [9]; [13]),PPB (percent plasma binding) [10],CaV1.2 pIC50 (Q) (CaV1.2 [7]; [13]),KCNQ1 pIC50 (Q) (KCNQ1/MinK; [14]),other results
Cc1c(O)cccc1C(=O)N[C@@H](CSc1ccccc1)[C@H](O)CN1C[C@H]2CCCC[C@H]2C[C@H]1C(=O)NC(C)(C)C [Nelfinavir],10900 ng/mL,8300 ng/mL,2.3,80.63 nM,19197.2 nM,45.78 ng/mL,80.6284 nM,61.4 nM,14618.1 nM,34.86 ng/mL,61.3959 nM,1.50,–,–,–,–,–,"hERG pIC50 (M) (hERG [2]): 4.9; upper 90% confidence limit of QTc change ([3]; at every time point, ref Damle et al., J Clin Pharm. (49):291-300. 2009): a) upper 90% confidence limit below 10 msec at every; TQT study outcome in words (COMMENTS) ([3]; ref Gintant (2011)): Damle et al concludes negative TQT study since; relationship between exposure and QTc in words (COMMENTS) ([3]; ref Gintant (2011)): time point and b) PK-PD model slopes were negative"
Cc1nc2n(c(=O)c1CCN1CCC(c3noc4cc(F)ccc34)CC1)CCCC2O (stereo not shown) [Paliperidone],113 ng/mL,35 ng/mL,4.2,71.54 nM,264.953 nM,30.51 ng/mL,71.5374 nM,22.16 nM,82.0652 nM,9.45 ng/mL,22.1576 nM,–,3.0,4.6,73% PPB,–,–,NaV1.5 pIC50 (Q2) (NaV1.5 [6]): 3.8; CaV1.2 pIC50 (Q) (CaV1.2 [7]): 3.4
C[C@H](Cc1cc2c(c(C(N)=O)c1)N(CCCO)CC2)NCCOc1ccccc1OCC(F)(F)F [Silodosin],144 ng/mL,42.5 ng/mL,3.5,14.53 nM,290.598 nM,7.2 ng/mL,14.530 nM,4.288 nM,85.767 nM,2.125 ng/mL,4.288 nM,–,–,4.2,95% PPB,3.1,3.6,"IC50 at 3 min (hERG [5]; human, CHO K1 cells stably transfected with human ERG): 0.0251 mM"
CCN(CC)CCNC(=O)c1c(C)[nH]c(/C=C2\C(=O)Nc3ccc(F)cc32)c1C [Sunitinib],80.000 ng/mL,–,4.3,7.51 nM,150.207 nM,4.000 ng/mL,7.510 nM,–,–,–,–,–,–,–,–,4.1,–,"CaV1.2 pIC50 (B) (CaV1.2 [8]; IonWorks Barracuda, −log10 of IC50 in Molar, Hill n = 1, 0.0 = pIC50 ≤ 0 fitted): 3.7"
Cc1cn([C@@H]2C[C@@H](O)[C@H](CO)O2)c(=O)[nH]c1=O [Telbivudine],6600 ng/mL,2200 ng/mL,–,–,27246.8 nM,6382.2 ng/mL,26347.7 nM,–,9082.28 nM,2127.4 ng/mL,8782.56 nM,2.30,–,–,3.3%,–,3.6,NaV1.5 pIC50 (Q) (NaV1.5 [9]): 2.5
Cc1ccc(O)c([C@H](CCN(C(C)C)C(C)C)c2ccccc2)c1 [Tolterodine],19.00 ng/mL,9.10 ng/mL,–,1.343 nM,36.307 nM,0.703 ng/mL,1.343 nM,0.6434 nM,17.389 nM,0.337 ng/mL,0.643 nM,–,4.6,–,96.30%,–,–,"Kv4.3 pIC50 (Q) (Kv4.3/KChIP2.2; […]): 4.9; KCNQ1 pIC50 (Q) (KCNQ1/MinK; Hill n = 1, […]): 4.1"
